# Laboratory results from US6114327A, “Anti-viral compounds” (Eli Lilly and Company, priority 1999, dated 2000).
# System: rhinovirus, HRV-14
# Experiment: Anti-picornaviral plaque reduction assay
# Format: cell-based
# Details: Rhinovirus B, HRV14, Table 1, 50% inhibition of plaque formation, BSC-1 or Hela cells, 120 hours at 32° C., trans isomer
row,Structure (SMILES),IC50 [µg/mL]
1,"CS/C=C(\c1ccccc1)c1ccc2nc(N)n(S(=O)(=O)C(C)C)c2c1 [9 (parent), reference compound]",2.58
2,"CC(C)S(=O)(=O)n1c(N)nc2ccc(/C(=C/[S+](C)[O-])c3ccccc3)cc21 (centres unmarked) [10 (parent), reference compound]",3.52
3,"COC(=O)/C=C(\c1ccccc1)c1ccc2nc(N)n(S(=O)(=O)C(C)C)c2c1 [12 (parent), reference compound]",0.05
4,"CC(C)S(=O)(=O)n1c(N)nc2ccc(/C(=N/O)c3ccccc3)cc21 [13 (parent), reference compound]",0.05
5,"CC(C)S(=O)(=O)n1c(N)nc2ccc(/C(=C/S(C)(=O)=O)c3cccc(F)c3F)cc21 [Example 8, Trans 1-Isopropylsulfonyl-2-Amino-6-(1-[2,3-Difluorophenyl]-2-Methylsulfonylethen-1-yl)benzimidazole]",0.05
6,"CS/C=C(/c1ccc2nc(N)n(S(=O)(=O)C(C)C)c2c1)c1cccc(F)c1F [Example 9, 1-Isopropylsulfonyl-2-Amino-6-(1-[2,3-Difluorophenyl]-2-Methylsulfidoethen-1-yl)benzimidazole]",0.072
7,CC(C)S(=O)(=O)n1c(N)nc2ccc(/C(=C/[S+](C)[O-])c3cccc(F)c3F)cc21 (centres unmarked) [Example 10],0.394
8,"CC(=O)/C=C(/c1ccc2nc(N)n(S(=O)(=O)C(C)C)c2c1)c1cccc(F)c1F [Example 11, Trans 1-Isopropylsulfonyl-2-Amino-6-(1-[2,3-Difluorophenyl]-2-(1-Oxoeth-1-yl)ethen-1-yl)benzimidazole]",0.048
9,COC(=O)/C=C(/c1ccc2nc(N)n(S(=O)(=O)C(C)C)c2c1)c1cccc(F)c1F [Example 12],0.052
10,"CC(C)S(=O)(=O)n1c(N)nc2ccc(/C(=N/O)c3cccc(F)c3F)cc21 [Example 13, Trans 1-Isopropylsulfonyl-2-Amino-6-(1-[2,3-Difluorophenyl]oximyl)benzimidazole]",0.051
11,"CC(=O)/C=C(\c1ccc(F)cc1)c1ccc2nc(N)n(S(=O)(=O)C(C)C)c2c1 [Example 14, 1-Isopropylsulfonyl-2-Amino-6-(1-[4-Fluorophenyl]-2-(1-Oxoeth-1-yl)ethen-1-yl)benzimidazole]",0.21
